Laboratory results reported in patent US12698311B2, “Process for the preparation of an antimicrobial peptide” (INSTITUTE OF BIORESOURCES AND SUSTAINABLE DEVELOPMENT, priority 2020, dated 2026).
No end group written: not given here.

Key:
[1] = Retention of antimicrobial activity after treatment with degradative enzymes; type: physicochemical; design: key to Activity: (+) retention; (−) loss
Experimental: Effect of Physiological Enzymes:
The purified AMP, Peoriaerin IBSD35 is treated with proteolytic enzymes, it can withstand against enzymes and its antimicrobial activity was checked by measuring the zone of inhibition as shown in Table 3 below.

[2] = Retention of antimicrobial activity after treatment with detergents; type: physicochemical; design: key: (+) retention; (−) loss
Experimental: The surfactants such as sodium dodecyl sulphate (SDS), Tween 20, Tween 80 and Triton X were incubated with the anti-microbial compound, Peoriaerin IBSD35.

[3] = Retention of antimicrobial activity after treatment with inorganic solvents and temperature; type: physicochemical; design: key to Activity: (+) retention; (−) loss
Excerpt: Effect of Temperature and Inorganic Solvents:
The AMP, Peoriaerin IBSD35 is a very stable biomolecule and works on a wide range of temperature and pH and withstand against inorganic solvents as shown in Table 2 below.

[4] = tested on: Candida albicans ATCC 10231, Escherichia coli ATCC 25922, Klebsiella pneumoniae ATCC 4352, Salmonella typhimurium ATCC 14028, Candida tropicalis ATCC 750 and …; experiment: Spectrum of antimicrobial activity against AMR pathogens; type: cell-based; details: six ATCC strains listed
Experimental: Spectrum of antimicrobial activity: The spectrum of activity was determined from the selected test pathogens viz. S. aureus ATCC25923, C. ablicans ATCC 10231, and E. coli ATCC 25922 which represented as a Gram (+), Gram (−) and fungal pathogens (FIG. 2). […] The cell debris were removed by centrifugation at 4000 rpm for 15 min at 4° C. The supernatant was harvested for antimicrobial bioassay and preserved at 4° C. for further purification (Fujita et al., 2007). The well loaded with samples that shown a clear halo zone of inhibition (at least 6-7 mm diameter) were taken as positive against the selected Gram (+ve), Gram (−ve) and fungal pathogens. The bacterial endophytic strain IBSD35 isolated from M. pachycarpa has shown a broad-spectrum of AA against the representative test pathogens in the preliminary Spot-on-lawn bioassay and the Cut-well agar diffusion bioassay (FIG. 2). It inferred antifungal, antibacterial and antimicrobial property of the endophyte strain IBSD35.

[5] = type: cell-based; details: broth dilution bioassay
Experimental: The peptides were recovered by lyophilization and stored at −20° C. until further use. The MIC of the RP-HPLC purified bioactive metabolite was determined to be 0.0365 μg μl^−1 with broth dilution bioassay. The two peaks were detected in the selected wavelengths of λ280 nm, λ205 nm and λ214 nm. However, only the peak 1 was selected for further study as it had shown more potency in antimicrobial susceptibility test.

GFEFAGAGNGVGRVNSATDATYGLGVFLDAGDNNLAKNAESTGYNDANAVTVTK [Peoriaerin IBSD35]
Activity ([1]; after Catalase): + | Activity ([1]; after Cellulase): + | Activity ([1]; after Pectinase): + | Activity ([1]; after Pepsin): + | Activity ([1]; after Proteinase K (1 mg/ml)): + | Zone of inhibition diameter ([1]; after Proteinase K (1 mg/ml)): 11 mm | Activity ([2]; after SDS (1:1)): + | Activity ([2]; after Triton X (1:1)): + | Activity ([2]; after Tween 20 (1:1)): + | Activity ([2]; after Tween 80 (1:1)): + | stable at a pH in the range [3]: 4-9 | Activity ([3]; after Acetone (1:1)): + | Activity ([3]; after Butanol (1:1)): + | Activity ([3]; after Ethyl acetate (1:1)): + | Activity ([3]; after Isopropanol (1:1)): + | Activity ([3]; after Methanol (1:1)): + | Activity ([3]; after Petroleum ether (1:1)): + | Activity ([3]; after Temperature 20 ° C.): + | Activity ([3]; after Temperature 40 ° C.): + | Activity ([3]; after Temperature 60 ° C.): + | Activity ([3]; after Temperature 80 ° C.): + | Activity ([3]; after Temperature 100 ° C.): + | Activity ([3]; after Temperature 121 ° C.): + | antimicrobial activity against gram positive, gram negative and fungal anti-microbial resistant pathogens [4]: strong and broad spectrum of antimicrobial activity | MIC [5]: 36.5 µg/mL
